From US20260355132A1, “POLYMORPHIC FORMS OF EPINEPHRINE MALONATE” (Biothea Pharma, Inc., priority 2023, published 2026)
Structures can show the parent of a compound that is named as a salt.

Tests used:
Assay type in all cases: physicochemical
[1] = Relative thermodynamic stability studies in EtOH, EtOH/water and IPA/water; solid-state form stability; settings: for relative humidity at which the form is kinetically stable: solid state, Form B once formed, Form C (days); for water activity (aw) at which the form is most-stable: room temperature
Method: Relative thermodynamic stability studies in EtOH (crystallization process solvent), EtOH/water and IPA/water were performed. […] The critical water activity for Forms A/B interconversion is between aw=0.4-0.55 (40-55% RH). The transition temperature (Tt) for the enantiotropically related Forms A/C is between RT-40 °C. […] Form C is kinetically stable in solid state (days) at <40% RH.

[2] = Kinetic solubility in water (HPLC); settings: 20 °C; for amount nearly dissolved in 0.5 mL of added water: 0.5 mL water; for amount nearly dissolved in 0.5 mL of added water / Approximate Solubility (mg/0.5 mL) / Approximate Solubility / Approximate Solubility (g/mL): 30 min; for Approximate Solubility (mg/0.5 mL) / Approximate Solubility / Approximate Solubility (g/mL) / Content of Salt in VF (mg) 30 min: water, HPLC; for Approximate Solubility / Approximate Solubility (g/mL): kinetic solubility
Method: The kinetic solubility of Form A epinephrine malonate salt and bitartrate salt was determined using the procedure described herein. The solid active pharmaceutical ingredient was allowed to equilibrate from 5 °C to ambient temperature for 1 h. Solids were weighed (0.76 g of malonate and 0.20 g of bitartrate) into 4-mL vials containing a magnetic polytetrafluoroethylene (PTFE) stir bar. Water (0.5 mL) was added and samples were stirred at 20 °C. Additional API was gradually added in small portions over 30 min until trace amount of residual solid was present. At 30 min, the content of the nearly dissolved sample was transferred to a volumetric flask (VF), diluted, subjected to HPLC analyses, and adjusted for initial volume of water used.
The HPLC analysis was conducted using an Agilent 1100 with a Phenomenx Gemini C18, 100×4.6 mm, 3.0 um column. The column temperature was 50 °C, wavelength 210 nm, and flow rate 1.2 mL/min. Mobile Phase A was 5:95 MeCN: Buffer and Mobile Phase B was 45:55 MeCN: Buffer.
The kinetic solubility of Form B was determined using the procedure described herein. The solid Form B was allowed to equilibrate from storage temperature (5 °C) to ambient temperature for 1 hour. Solids were weighed (0.025 g of Form B) into a 4-mL vial containing a magnetic PTFE stir bar. Water (0.5 mL) was added and the sample was stirred at 20 °C. Additional API was gradually added in small portions over 30 min until trace amount of residual solid was present. At 30 minutes, the content of the nearly dissolved sample was transferred to a volumetric flask (VF), diluted, subjected to HPLC analyses, and adjusted for initial volume of water used.

[3] = Water solubility of epinephrine malonate salt (general description); settings: no method given
[4] = Stability profile of epinephrine malonate salt (general description); settings: 7, 14, 30, 60, 90, 120, or 150 days
[5] = Dynamic vapor sorption (DVS); settings: 25 °C, nitrogen carrier gas, 0-95% relative humidity
Method: Form A was subjected to DVS. DVS is a gravimetric technique that measures how quickly and how much of a solvent is absorbed by a sample such as a dry powder absorbing water. The test was conducted using a Surface Measurement Systems DVS Intrinsic Plus at a temperature of 25 °C and using nitrogen as a carrier gas. The relative humidity range spanned from 0-95% and the maximum equilibration time was 240 minutes. The relative humidity steps included 40-50-60-70-75-70-60-50-40-30-20-10-0-10-20-30-40-50-60-70-75-80-90-95-90-80-75-70-60-50-40-30-20-10-0%.
Form A was subjected to the increasing relative humidity until a change in mass occurred. Once a change in mass resulted, the relative humidity was lowered to determine stability of the resulting mass. The relative humidity was then increased again until another change in mass resulted. Once a change in mass resulted, the relative humidity was lowered to determine stability of the resulting mass.

[6] = pKa of epinephrine malonate salt Form A (general description); settings: no method given
[7] = relative thermodynamic stability
[8] = listed as Epinephrine Malonate Form A

Compound | relative humidity at which the form is kinetically stable [1] | Approximate Solubility (mg/0.5 mL) [2] | Approximate Solubility [2] | Content of Salt in VF (mg) 30 min [2] | amount nearly dissolved in 0.5 mL of added water [2] | critical relative humidity for Forms A/B interconversion [1] | critical water activity for Forms A/B interconversion (aw) [1] | water activity (aw) at which the form is most-stable [1, 7] | further results
CNC[C@H](O)c1ccc(O)c(O)c1 [Form C, epinephrine malonate] | < 40 % RH | – | – | – | – | – | – | – | water activity (aw) at which the form is more stable at 40 °C ([1]; 40 °C, relative thermodynamic stability): 0
CNC[C@H](O)c1ccc(O)c(O)c1 [Epinephrine Bitartrate, epinephrine bitartrate, reference compound] | – | ~259 mg mg/0.5 mL | ~520 mg/mL | 259.45 mg | – | – | – | – | amount nearly dissolved in 0.5 mL of added water ([2]; listed as bitartrate salt): 259 mg; Approximate Solubility (g/mL) ([2]; listed as bitartrate salt): ~ 0.52 g/mL
CNC[C@H](O)c1ccc(O)c(O)c1 [epinephrine malonate salt, epinephrine malonate] | – | – | – | – | – | – | – | – | water solubility compared with other epinephrine salts (maleate, fumarate, hemi sulfate, bitartrate, hydrochloride) ([3]; crystalline form): substantially higher; stability profile [4]: favorable stability profile
CNC[C@H](O)c1ccc(O)c(O)c1 [Form B, epinephrine malonate] | 0-80 % RH | ~511 mg mg/0.5 mL | 1000 mg/mL | 511 mg | 511 mg | 40-55 % RH | 0.4-0.55 | ≥ 0.55 | relative humidity for solid-state transition from Form A to Form B ([1]; solid-state): ≥ 40 % RH; formation of Form B in solid state ([1]; solid-state, >55% RH): forms relatively quickly (hours) at >55% RH
CNC[C@H](O)c1ccc(O)c(O)c1 [Form A, epinephrine malonate] | – | – | – | – | 912 mg | 40-55 % RH | 0.4-0.55 | ≤ 0.4 | solubility ([3]; water): ≥ 1140 mg/mL; changes in mass during DVS [5]: Two changes in mass occurred; pKa [6]: 5.47; Approximate Solubility (g/mL) [2]: ~ 1.82 g/mL; Approximate Solubility [2, 8]: ~1820 mg/mL; Approximate Solubility (mg/0.5 mL) [2, 8]: ~911 mg mg/0.5 mL; Content of Salt in VF (mg) 30 min [2, 8]: 911.53 mg
